{
  "source": "patent US20240368214A1",
  "about": "“POSITIVE NMDA-MODULATING COMPOUNDS AND METHODS OF USE THEREOF” (SAGE THERAPEUTICS, INC., priority 2021, published 2024)",
  "biological_target": "T1, recombinant human GluN1/GluN2A receptor (Homo sapiens, UniProt Q05586+Q12879)",
  "T1 construct": "expressed in transfected cells; host or cells: HEK293, tetracycline-inducible expression",
  "T1 sequence (Q12879 23-1464, other chains not shown)": "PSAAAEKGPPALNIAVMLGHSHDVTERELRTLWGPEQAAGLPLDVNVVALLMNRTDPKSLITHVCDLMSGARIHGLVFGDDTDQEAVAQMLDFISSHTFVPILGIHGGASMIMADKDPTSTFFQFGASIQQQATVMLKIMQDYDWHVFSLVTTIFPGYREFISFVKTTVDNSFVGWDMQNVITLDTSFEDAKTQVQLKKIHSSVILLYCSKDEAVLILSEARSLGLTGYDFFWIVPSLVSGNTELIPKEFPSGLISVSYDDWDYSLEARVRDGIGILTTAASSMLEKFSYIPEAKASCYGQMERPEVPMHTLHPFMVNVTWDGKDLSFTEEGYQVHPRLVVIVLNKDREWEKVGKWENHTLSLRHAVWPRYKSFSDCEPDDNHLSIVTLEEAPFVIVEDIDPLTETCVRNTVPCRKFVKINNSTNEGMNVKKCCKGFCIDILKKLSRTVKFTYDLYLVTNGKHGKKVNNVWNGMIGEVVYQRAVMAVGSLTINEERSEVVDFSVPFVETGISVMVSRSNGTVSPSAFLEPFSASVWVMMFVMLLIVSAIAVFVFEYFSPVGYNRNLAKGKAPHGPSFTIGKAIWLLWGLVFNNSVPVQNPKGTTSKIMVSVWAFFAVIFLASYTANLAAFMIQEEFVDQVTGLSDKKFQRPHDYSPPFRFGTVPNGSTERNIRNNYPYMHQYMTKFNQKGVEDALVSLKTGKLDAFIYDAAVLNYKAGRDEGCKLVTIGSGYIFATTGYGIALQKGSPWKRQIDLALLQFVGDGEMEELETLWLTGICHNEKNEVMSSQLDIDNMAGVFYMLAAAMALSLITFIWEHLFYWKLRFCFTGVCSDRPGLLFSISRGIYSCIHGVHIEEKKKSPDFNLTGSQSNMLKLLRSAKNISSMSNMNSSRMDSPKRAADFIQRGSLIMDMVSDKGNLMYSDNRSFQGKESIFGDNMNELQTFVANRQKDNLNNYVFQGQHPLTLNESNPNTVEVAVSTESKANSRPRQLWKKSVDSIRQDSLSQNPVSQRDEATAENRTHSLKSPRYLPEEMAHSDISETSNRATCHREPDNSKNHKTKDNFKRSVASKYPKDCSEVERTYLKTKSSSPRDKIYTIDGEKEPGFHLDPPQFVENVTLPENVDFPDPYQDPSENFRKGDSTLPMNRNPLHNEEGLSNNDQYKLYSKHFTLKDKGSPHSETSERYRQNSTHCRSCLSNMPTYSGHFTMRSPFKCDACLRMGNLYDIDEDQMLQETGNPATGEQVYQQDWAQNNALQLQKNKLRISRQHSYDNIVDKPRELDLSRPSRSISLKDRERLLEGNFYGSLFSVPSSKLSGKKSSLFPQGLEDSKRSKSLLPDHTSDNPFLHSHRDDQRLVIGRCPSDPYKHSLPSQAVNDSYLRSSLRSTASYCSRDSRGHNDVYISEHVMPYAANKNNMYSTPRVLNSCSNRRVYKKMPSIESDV",
  "assay": "Whole-cell patch clamp of mammalian cells (Syncropatch 384i), NMDA modulation",
  "type": "cell-based",
  "settings": "HEK293 cells, human GluN1/GluN2A, glutamate 1 μM / glycine 100 μM, -80 mV, peak amplitude increase; for EC50: read-out: EC50",
  "summary_of_the_method": "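Modulation read as fold rise in peak current, (Icomp/Icontrol)−1, from 8 concentrations with ≥2 wells each, four-parameter fit. Compound pre-incubated 120 s then co-applied with 1 μM glutamate plus 100 μM glycine; tetracycline-inducible HEK293 GluN1/GluN2A cells clamped at −80 mV.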",
  "note": "Where two headings read alike, the source gives them in different places.",
  "data": [
    {"smiles": "CC[C@]1(O)CC[C@@]2(C)[C@@H](CC[C@@H]3[C@@H]2CC[C@]2(CC)[C@@H]([C@H](C)CC[C@H](O)C(C)C)CC[C@@H]32)C1", "note": "[Compound F-6, (3S,5S,8R,9S,10S,13R,14S,17R)-3,13-diethyl-17-((2R,5S)-5-hydroxy-6-methylheptan-2-yl)-10-methylhexadecahydro-1H-cyclopenta[a]phenanthren-3-ol]", "values": [
      {"measurement": "EC50", "setting": "Table F-2", "value": "100 to 500", "unit": "nM"}
    ]},
    {"smiles": "CC[C@@]1(O)CCC[C@@]2(C)[C@@H](CC[C@@H]3[C@@H]2CC[C@]2(C)[C@@H]([C@H](C)CC[C@@](C)(O)C(F)(F)F)CC[C@@H]32)C1", "note": "[Compound D-6, (1R,3aS,3bR,5aS,7R,10aS,10bS,12aR)-7-ethyl-10a,12a-dimethyl-1-((2R,5R)-6,6,6-trifluoro-5-hydroxy-5-methylhexan-2-yl)octadecahydrocyclohepta[a]cyclopenta[f]naphthalen-7-ol]", "values": [
      {"measurement": "Emax", "setting": "Table D-2", "value": "100 to 200", "unit": "%"},
      {"measurement": "EC50", "setting": "Table D-2", "value": "1 to 100", "unit": "nM"}
    ]},
    {"smiles": "CC[C@]1(O)CC[C@@]2(C)C(=CC[C@H]3[C@@H]4CC[C@H]([C@H](C)CC[C@@H](O)C(C)C)[C@H]4CC[C@@H]32)C1", "note": "[Compound F-10, (3S,8S,9S,10R,13R,14R,17R)-3-ethyl-17-((2R,5R)-5-hydroxy-6-methylheptan-2-yl)-10-methyl-2,3,4,7,8,9,10,11,12,13,14,15,16,17-tetradecahydro-1H-cyclopenta[a]phenanthren-3-ol]", "values": [
      {"measurement": "EC50", "setting": "Table F-2", "value": "100 to 500", "unit": "nM"}
    ]},
    {"smiles": "CC[C@]1(O)CC[C@@]2(C)[C@@H](CC[C@@H]3[C@@H]2CC[C@]2(C)[C@@H]([C@H](C)CCCC(C)(C)O)CCC[C@@H]32)C1", "note": "[Compound H-4, (2S,4aS,4bS,6aR,7R,10aS,10bR,12aS)-2-ethyl-7-((R)-6-hydroxy-6-methylheptan-2-yl)-4a,6a-dimethyloctadecahydrochrysen-2-ol]", "values": [
      {"measurement": "Emax", "setting": "Table H-2", "value": "100 to 200", "unit": "%"},
      {"measurement": "EC50", "setting": "Table H-2", "value": "100 to 500", "unit": "nM"}
    ]},
    {"smiles": "CC[C@]1(O)CC[C@@]2(C)[C@@H](CC[C@@H]3[C@@H]2CC[C@]2(C)[C@@H](C(CC[C@@H](O)C(C)C)C(F)(F)F)CC[C@@H]32)C1", "note": "(stereo in doubt) [Compound A-19, (3S,5S,8R,9S,10S,13S,14S,17R)-3-ethyl-10,13-dimethyl-17-((2R,5R)-1,1,1-trifluoro-5-hydroxy-6-methylheptan-2-yl)hexadecahydro-1H-cyclopenta[a]phenanthren-3-ol]", "values": [
      {"measurement": "EC50", "setting": "Table A-2", "value": "> 1000", "unit": "nM"}
    ]},
    {"smiles": "CC[C@]1(O)CC[C@]2(C)C3=CC[C@]4(C)[C@@H]([C@H](C)CC[C@@]5(O)CCOC5)CC[C@H]4[C@@H]3CC[C@H]2C1", "note": "[Compound E-8, (R)-3-((R)-3-((3S,5S,8S,10S,13R,14S,17R)-3-ethyl-3-hydroxy-10,13-dimethyl-2,3,4,5,6,7,8,10,12,13,14,15,16,17-tetradecahydro-1H-cyclopenta[a]phenanthren-17-yl)butyl)tetrahydrofuran-3-ol]", "values": [
      {"measurement": "Emax", "setting": "Table E-2", "value": "> 200", "unit": "%"},
      {"measurement": "EC50", "setting": "Table E-2", "value": "1 to 100", "unit": "nM"}
    ]},
    {"smiles": "CC[C@H](CC[C@@](C)(O)C(F)(F)F)[C@H]1CC[C@H]2[C@@H]3CC[C@H]4C[C@](O)(CC)CC[C@]4(C)[C@H]3CC[C@]12C", "note": "[Compound A-2, (3S,5S,8R,9S,10S,13R,14S,17R)-3-ethyl-10,13-dimethyl-17-((3R,6R)-7,7,7-trifluoro-6-hydroxy-6-methylheptan-3-yl)hexadecahydro-1H-cyclopenta[a]phenanthren-3-ol]", "values": [
      {"measurement": "Emax", "setting": "Table A-2", "value": "100 to 200", "unit": "%"},
      {"measurement": "EC50", "setting": "Table A-2", "value": "500 to 1000", "unit": "nM"}
    ]},
    {"smiles": "CC[C@]1(O)CC[C@]2(C)C3=CC[C@]4(C)[C@@H]([C@H](C)CC[C@]5(O)CCOC5)CC[C@H]4[C@@H]3CC[C@H]2C1", "note": "[Compound E-9, (S)-3-((R)-3-((3S,5S,8S,10S,13R,14S,17R)-3-ethyl-3-hydroxy-10,13-dimethyl-2,3,4,5,6,7,8,10,12,13,14,15,16,17-tetradecahydro-1H-cyclopenta[a]phenanthren-17-yl)butyl)tetrahydrofuran-3-ol]", "values": [
      {"measurement": "Emax", "setting": "Table E-2", "value": "> 200", "unit": "%"},
      {"measurement": "EC50", "setting": "Table E-2", "value": "1 to 100", "unit": "nM"}
    ]},
    {"smiles": "CC[C@]1(O)CC[C@@]2(C)[C@@H](CC[C@@H]3[C@@H]2CC[C@]2(CC)[C@@H]([C@H](C)CC[C@@H](O)C(C)C)CC[C@@H]32)C1", "note": "[Compound F-7, (3S,5S,8R,9S,10S,13R,14S,17R)-3,13-diethyl-17-((2R,5R)-5-hydroxy-6-methylheptan-2-yl)-10-methylhexadecahydro-1H-cyclopenta[a]phenanthren-3-ol]", "values": [
      {"measurement": "EC50", "setting": "Table F-2", "value": "100 to 500", "unit": "nM"}
    ]},
    {"smiles": "CC[C@]12CC[C@H]3[C@@H](CC=C4C[C@@](C)(O)CC[C@@]43C)[C@@H]1CC[C@@H]2[C@H](C)CC[C@@H](O)C(C)C", "note": "[Compound F-4, (3S,8S,9S,10R,13R,14S,17R)-13-ethyl-17-((2R,5R)-5-hydroxy-6-methylheptan-2-yl)-3,10-dimethyl-2,3,4,7,8,9,10,11,12,13,14,15,16,17-tetradecahydro-1H-cyclopenta[a]phenanthren-3-ol]", "values": [
      {"measurement": "EC50", "setting": "Table F-2", "value": "100 to 500", "unit": "nM"}
    ]},
    {"smiles": "CC[C@@]1(O)CC[C@@H]2CC[C@@H]3[C@H](CC[C@]4(C)[C@@H]([C@H](C)CC[C@@](C)(O)C(F)(F)F)CC[C@@H]34)[C@@]2(C)CC1", "note": "[Compound D-1, (1R,3aS,3bR,5aS,8R,10aS,10bS,12aR)-8-ethyl-10a,12a-dimethyl-1-((2R,5R)-6,6,6-trifluoro-5-hydroxy-5-methylhexan-2-yl)octadecahydrocyclohepta[a]cyclopenta[f]naphthalen-8-ol]", "values": [
      {"measurement": "Emax", "setting": "Table D-2", "value": "< 100", "unit": "%"},
      {"measurement": "EC50", "setting": "Table D-2", "value": "> 1000", "unit": "nM"}
    ]},
    {"smiles": "CC[C@]1(O)CCC[C@@]2(C)C(=CC[C@H]3[C@@H]4CC[C@H]([C@H](C)CCC(C)(C)O)[C@@]4(C)CC[C@@H]32)C1", "note": "[Compound D-9, (1R,3aS,3bS,7S,10aR,10bS,12aR)-7-ethyl-1-((R)-5-hydroxy-5-methylhexan-2-yl)-10a,12a-dimethyl-1,2,3,3a,3b,4,6,7,8,9,10,10a,10b,11,12,12a-hexadecahydrocyclohepta[a]cyclopenta[f]naphthalen-7-ol]", "values": [
      {"measurement": "Emax", "setting": "Table D-2", "value": "100 to 200", "unit": "%"},
      {"measurement": "EC50", "setting": "Table D-2", "value": "100 to 500", "unit": "nM"}
    ]},
    {"smiles": "CC[C@]1(O)CC[C@@]2(C)[C@@H](CC[C@@H]3[C@@H]2CC[C@]2(C)[C@@H]([C@H](F)CC[C@@H](O)C(C)C)CC[C@@H]32)C1", "note": "[Compound A-5, (3S,5S,8R,9S,10S,13S,14S,17S)-3-ethyl-17-((1R,4R)-1-fluoro-4-hydroxy-5-methylhexyl)-10,13-dimethylhexadecahydro-1H-cyclopenta[a]phenanthren-3-ol]", "values": [
      {"measurement": "Emax", "setting": "Table A-2", "value": "> 200", "unit": "%"},
      {"measurement": "EC50", "setting": "Table A-2", "value": "1 to 100", "unit": "nM"}
    ]},
    {"smiles": "CC[C@]1(O)CC[C@@]2(C)C(=CC[C@H]3[C@@H]4[C@H](C)C[C@H]([C@H](C)CCCC(C)(C)O)[C@@]4(C)CC[C@@H]32)C1", "note": "[Compound B-21, (3S,8R,9S,10R,13R,14S,15R,17R)-3-ethyl-17-((R)-6-hydroxy-6-methylheptan-2-yl)-10,13,15-trimethyl-2,3,4,7,8,9,10,11,12,13,14,15,16,17-tetradecahydro-1H-cyclopenta[a]phenanthren-3-ol]", "values": [
      {"measurement": "EC50", "setting": "Table B-2", "value": "1 to 100", "unit": "nM"}
    ]},
    {"smiles": "CC[C@]1(O)CC[C@@]2(C)[C@@H](CC[C@H]3[C@@H]4[C@H](C)C[C@H]([C@H](C)CCCC(C)(C)O)[C@@]4(C)CC[C@@H]32)C1", "note": "[Compound B-18, (3S,5S,8R,9S,10S,13R,14S,15R,17R)-3-ethyl-17-((R)-6-hydroxy-6-methylheptan-2-yl)-10,13,15-trimethylhexadecahydro-1H-cyclopenta[a]phenanthren-3-ol]", "values": [
      {"measurement": "Emax", "setting": "Table B-2", "value": "100 to 200", "unit": "%"},
      {"measurement": "EC50", "setting": "Table B-2", "value": "1 to 100", "unit": "nM"}
    ]},
    {"smiles": "CC[C@]1(O)CC[C@H]2[C@@H](CC[C@@H]3[C@@H]2CC[C@]2(C)[C@@H]([C@H](C)CC[C@@](C)(O)C(F)(F)F)CC[C@@H]32)C1", "note": "[Compound G-2, (3S,5S,8R,9R,10S,13R,14S,17R)-3-ethyl-13-methyl-17-((2R,5R)-6,6,6-trifluoro-5-hydroxy-5-methylhexan-2-yl)hexadecahydro-1H-cyclopenta[a]phenanthren-3-ol]", "values": [
      {"measurement": "Emax", "setting": "Table G-2", "value": "100 to 200", "unit": "%"},
      {"measurement": "EC50", "setting": "Table G-2", "value": "500 to 1000", "unit": "nM"}
    ]},
    {"smiles": "CC[C@]1(O)CC[C@@]2(C)[C@@H](CC[C@H]3[C@@H]4[C@H](C)C[C@H]([C@H](C)CC[C@@](C)(O)C(F)(F)F)[C@@]4(C)CC[C@@H]32)C1", "note": "[Compound B-16, (3S,5S,8R,9S,10S,13R,14S,15R,17R)-3-ethyl-10,13,15-trimethyl-17-((2R,5R)-6,6,6-trifluoro-5-hydroxy-5-methylhexan-2-yl)hexadecahydro-1H-cyclopenta[a]phenanthren-3-ol]", "values": [
      {"measurement": "Emax", "setting": "Table B-2", "value": "100 to 200", "unit": "%"},
      {"measurement": "EC50", "setting": "Table B-2", "value": "100 to 500", "unit": "nM"}
    ]}
  ]
}
